Experimental findings from patent US20250074880A1, “NOVEL QUINOLINE DERIVATIVES AND USES THEREOF” (Istituto Europeo di Oncologia S.r.l., priority 2021, published 2025) are described below.

For experiment [1], the system named is MCF-7 primary breast adenocarcinoma cells. The settings on record: 10 μM, versus 0.1% DMSO, FIG. 7A-C.
Method: The MCF-7 cells were seeded in six-well plates (300,000 cells/well), grown overnight (37° C., 5% CO2) during which they attached to the bottom plate. […] The cells were then fixated (10 min) with ice cold 100% methanol, washed twice with phosphate-buffered saline (PBS), and incubated with 3% (w/v) bovine serum albumin (BSA) in PBS containing 0.05% Tween 20 (room temperature, 1 h). Next, the cells were incubated (room temperature, 1 h) with human CREST patient serum (1:30 dilution, Antibodies Incorporated) to mark kinetochores, and mouse monoclonal anti-α-tubulin antibody (clone B512, 1:1000 dilution, Sigma) to mark microtubules, followed by incubation (room temperature, 30 min) with a secondary anti-mouse or anti-human IgG antibody that was conjugated either to chromophore AF647 (1:500, Invitrogen), AF488 (1:500 dilution, Invitrogen). DNA was stained with 0.1 μg/ml 4,6-diamidino-2-phenylindole (DAPI, Sigma Aldrich) and coverslips were mounted with Prolong Diamond Antifade (P36965, Invitrogen). To perform immunofluorescence imaging, the cells were captured on a confocal Nikon Eclipse Ti2-Spinning Disc V2 microscope (100× objective, NA=1.45, Nikon) equipped with an Andor iXon Ultra EMCCD camera. Images, acquired as Z-stacks (0.15 μm for each stack; about 80 stacks for mitotic cells) and analysed with ImageJ (Fiji) v1.53f51.
The target in experiment [2] is Ndc80 kinetochore subcomplex-MT binding (Homo sapiens, UniProt O14777). The settings on record: Ndc80 subcomplex:MTs 5 nM:10 nM; FIG. 3.
Sequence of Ndc80 kinetochore subcomplex-MT binding (O14777 whole entry): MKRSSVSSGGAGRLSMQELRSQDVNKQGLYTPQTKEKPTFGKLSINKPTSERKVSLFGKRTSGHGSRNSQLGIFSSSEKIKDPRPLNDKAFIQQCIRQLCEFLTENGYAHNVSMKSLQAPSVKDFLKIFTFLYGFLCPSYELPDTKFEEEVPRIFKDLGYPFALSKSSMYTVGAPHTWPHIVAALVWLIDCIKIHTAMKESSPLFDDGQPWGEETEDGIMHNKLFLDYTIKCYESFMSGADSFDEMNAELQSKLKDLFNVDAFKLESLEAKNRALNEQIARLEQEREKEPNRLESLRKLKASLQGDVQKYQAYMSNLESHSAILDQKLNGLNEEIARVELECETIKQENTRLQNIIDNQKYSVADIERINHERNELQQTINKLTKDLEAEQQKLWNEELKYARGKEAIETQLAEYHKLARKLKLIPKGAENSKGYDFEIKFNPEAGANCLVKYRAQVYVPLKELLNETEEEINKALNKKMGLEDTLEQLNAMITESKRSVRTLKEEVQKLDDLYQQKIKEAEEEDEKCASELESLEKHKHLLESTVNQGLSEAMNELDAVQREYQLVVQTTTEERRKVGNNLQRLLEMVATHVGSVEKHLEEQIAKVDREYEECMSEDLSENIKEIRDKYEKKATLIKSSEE
Sequence of Ndc80 kinetochore subcomplex-MT binding (Q9BZD4 whole entry partner): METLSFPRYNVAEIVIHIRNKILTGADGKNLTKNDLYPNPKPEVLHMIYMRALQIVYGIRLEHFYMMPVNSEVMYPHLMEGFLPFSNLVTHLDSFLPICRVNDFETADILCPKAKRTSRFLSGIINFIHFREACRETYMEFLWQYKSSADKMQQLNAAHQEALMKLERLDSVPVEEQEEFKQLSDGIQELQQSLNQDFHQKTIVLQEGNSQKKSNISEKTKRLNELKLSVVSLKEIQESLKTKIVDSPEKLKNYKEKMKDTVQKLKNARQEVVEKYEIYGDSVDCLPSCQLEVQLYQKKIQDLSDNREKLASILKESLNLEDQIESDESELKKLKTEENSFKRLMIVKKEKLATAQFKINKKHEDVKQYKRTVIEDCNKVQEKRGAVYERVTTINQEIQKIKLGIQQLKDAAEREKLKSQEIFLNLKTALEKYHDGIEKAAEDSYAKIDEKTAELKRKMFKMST
Sequence of Ndc80 kinetochore subcomplex-MT binding (Q8NBT2 whole entry partner): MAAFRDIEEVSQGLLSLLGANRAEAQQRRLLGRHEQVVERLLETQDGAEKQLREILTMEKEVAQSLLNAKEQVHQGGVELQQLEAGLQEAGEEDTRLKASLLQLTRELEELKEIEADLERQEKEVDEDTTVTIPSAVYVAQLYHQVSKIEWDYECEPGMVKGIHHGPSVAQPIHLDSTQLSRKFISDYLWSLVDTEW
Sequence of Ndc80 kinetochore subcomplex-MT binding (Q9HBM1 whole entry partner): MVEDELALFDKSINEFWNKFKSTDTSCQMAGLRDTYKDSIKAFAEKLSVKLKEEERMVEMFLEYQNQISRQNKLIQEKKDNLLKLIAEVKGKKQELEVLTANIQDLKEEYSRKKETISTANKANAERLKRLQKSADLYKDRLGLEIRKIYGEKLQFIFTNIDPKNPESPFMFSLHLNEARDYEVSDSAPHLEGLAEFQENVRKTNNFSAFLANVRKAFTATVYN
From the text: Next, the Ndc80 kinetochore subcomplex was bound to AlphaScreen® acceptor beads. In parallel, biotinylated and taxol-stabilised MTs were bound to streptavidin-covered AlphaScreen® donor beads. […] A decrease in light emission is caused by abrogated Ndc80 kinetochore subcomplex-MT binding.
The recombinant His6-tagged Ndc80 kinetochore subcomplex was bound to AlphaScreen® (Amplified Luminescent Proximity Homogeneous Assay Screen) Ni^2+-acceptor beads. In parallel, biotinylated and taxol-stabilised MTs (Cytoskeleton) were bound to streptavidin-covered AlphaScreen® donor beads (Perkin Elmer). […] A decrease in or loss of light emission is caused by a reduced or total loss of Ndc80 kinetochore subcomplex-MT binding.
Experiment [3] concerns MCF-7 primary breast adenocarcinoma cells. The settings on record: for cell proliferation (summary statement): combined experimental findings. How it is done: The MCF-7 cells were seeded in six-well plates (150,000 cells/well), grown overnight (37° C., 5% CO2) during which they attached to the bottom plate. The cells were then treated with compound D5 (RS5982) at concentrations of 10 μM, 20 μM or 50 μM. In the negative and positive control experiments, the cells were treated with 0.25% DMSO and 1 μM of Paclitaxel, respectively. After 24 h and 48 h of incubation, the cells were pulse-labeled (30 min) with 10 μM of bromodeozyuridine (BrdU; stains actively replicating DNA), collected, and fixed with 95% ethanol. Next, the cells were treated with a BrdU-specific antibody (1:5 dilution, BD Bioscience 347580) and incubated for 1 h at room temperature. The secondary antibody used was AF488 Donkey anti mouse (dilution 1:50), which was incubated for 1 h at room temperature. Total DNA was stained overnight (4° C.) with 2.5 μg/ml of propidium iodide. Fluorescence-activated cell sorting (FACS) analysis next allowed the quantification of cells occurring in various stages of the cell cycle. Specifically, measurements were performed using MACSquant FACS (Miltenyi Biotech), and analysed by FlowJo software (Ashland). The G2/M cell cycle stage was evaluated by DNA content and negativity for BrdU incorporation, to avoid an overlap between G2 and late S-phase. The number of G2/M phase cells were plotted relative to that measured in the presence of 0.25% DMSO at each time point (fold change values=1).

For experiment [4] the test system is unchanged. The procedure:
The MCF-7 cells were seeded in six-well plates (150,000 cells/well), grown overnight (37° C., 5% CO2) during which they attached to the bottom plate. The cells were then treated with compound D5 (RS5982) or compound RS6008 at concentrations of 10 μM. 20 μM or 50 μM. In the negative and positive control experiments, the cells were treated with 0.25% DMSO and 1 μM of Paclitaxel, respectively. […] Finally, for each time point, the viable cell counts were plotted relatively to the number of viable cells measured in the presence of 0.25% DMSO.

Like-named read-outs stand apart in the source and are kept apart here.

Consider `Cc1ccc(NC(=O)c2cc(-c3ccc(C)o3)nc3ccccc23)c(C)c1` [D5, N-(2,4-Dimethylphenyl)-2-(5-methylfuran-2-yl) quinoline-4-carboxamide], for which the “anomalous kinetochore activity (unbound sister chromatids, lagging chromosomes) compared to control cells” value in experiment [1] is on record as “increase in anomalous kinetochore activity”. The “inhibition in the biochemical AlphaScreen binding assay” value in experiment [2] was 59.93%. Also, the “arrest at mitotic entry (G2/M phase)” value in experiment [3] (10, 20 or 50 μM, 24 and 48 h, relative to 0.25% DMSO, FIG. 5) is given as “enhanced arrest at mitotic entry (G2/M phase)”. Also, the “cell proliferation (summary statement)” value in experiment [3] is “delayed cell proliferation”. Also, the cell viability result in experiment [4] (10, 20 or 50 μM, 24, 48, 72 h, relative to 0.25% DMSO, FIG. 4) is “dose (D5)-dependent decrease in cell viability”.

Consider `Cc1ccc(NC(=O)c2cc(-c3ccco3)nc3ccccc23)c(C)c1` [RS6008, N-(2,4-Dimethylphenyl)-2-(furan-2-yl) quinoline-4-carboxamide], for which, in experiment [3], the “cell proliferation (summary statement)” value is “delayed cell proliferation”. Further, in experiment [4] (50 μM, FIG. 6), the cell viability entry is “strong decrease in cell viability”.

For the compound `Cc1ccc(-c2cc(C(=O)Nc3ccc(C(F)(F)F)cc3C(F)(F)F)c3ccccc3n2)o1` [RS6648, N-(2,4-bis(Trifluoromethyl)phenyl)-2-(5-methylfuran-2-yl) quinoline-4-carboxamide], in experiment [1], the “anomalous kinetochore activity (unbound sister chromatids, lagging chromosomes) compared to control cells” value is “increase in anomalous kinetochore activity”. Besides, in experiment [3], the “cell proliferation (summary statement)” value is reported as “delayed cell proliferation”.
